In patent EP2039702A2, “Prodrugs erbeta-selective substances, method for their production and pharmaceutical compounds containing these compositions” (Bayer Schering Pharma Aktiengesellschaft, priority 2005, dated 2007):

Target: humaner Carboanhydrase II (Homo sapiens, UniProt P00918)
Experiment: Carbonic anhydrase inhibition, photometric, nitrophenyl acetate conversion on microtitre plates
Assay type: biochemical
Conditions: humane Carboanhydrase II; read-out: CAII IC50
Text: Photometrische Bestimmung der Hemmung von humaner Carboanhydrase I oder II durch Sulfonamide oder Sulfamate auf Mikrotiterplatten mit Hilfe der enzymatischen Umwandlung von Nitrophenylacetat mit einem Farbumschlag von farblos nach gelb. Tabelle 1: IC50 Hemmwerte humaner Carboanhydrase I und II

`C[C@]12CC[C@@H]3c4ccc(OS(N)(=O)=O)cc4CC[C@H]3[C@@H]1CC[C@@H]2O` [Estradiol-3-sulfamat] was tested, and the IC50 was 21.6 ± 1.5 nM.
